Data from article PMC11784026, “Phase 1 study of the safety, tolerability, and pharmacokinetics of a synthetic macrocyclic peptide antibiotic (BRII-693) in healthy adult participants” (Antimicrobial Agents and Chemotherapy, 2024).
Read-outs that look alike come from different tables or passages of the source. Marks after values point to notes of the source that are not given here. Where a SMILES comes first, the peptide text is derived from it. Bridges are numbered along the chain shown (N, C = ends). [ ]: non-standard residue; d: D form. The star is where a group is joined. X1 = O=C(c1ccc(Cl)cc1Cl)*; Dab = NCC[C@H](N)C(=O)O; Abu = CC[C@H](N)C(=O)O; Dap = NC[C@H](N)C(=O)O

Experiments:
[1] = SAD; for fe0–48h: % of dose in urine as unchanged drug over 48 h; for CLR: renal clearance
Experimental: During the SAD phase of the study, cohort dosing of 10, 25, 50, 100, 200, 300, and 400 mg of BRII-693 was evaluated in a sequential manner. Each of the seven SAD cohorts enrolled eight eligible participants (six active; two placebo). On day 1, participants received a single IV dose of BRII-693 or placebo as a 1-hour infusion. Participants were then discharged on day 3.
For the SAD cohorts, blood samples for the measurement of BRII-693 in plasma were obtained before dosing and at 0.5 (mid-infusion), 1 (end of infusion), 1.25, 1.5, 2, 4, 6, 8, 12, 24, 36, and 48 hours following the start of dosing infusion. Urine samples were collected for PK assessment before dosing and at the time intervals of 0–4, 4–8, 8–12, 12–24, 24–36, and 36–48 hours after the start of dosing infusion.
All blood samples were collected into EDTA-containing vials, immediately placed on ice, and centrifuged at 3,000× g for approximately 10 minutes at 4°C. Supernatant plasma was transferred to two pre-chilled cryopreservation vials (at least 1.0 mL per vial) and stored at −80°C until shipped to the analytical laboratory. Urine samples collected for each time interval were refrigerated, aliquoted, and stored at −80°C until shipped to the analytical laboratory. Plasma and urine samples were analyzed for BRII-693 concentrations using validated high-performance liquid chromatography with detection by mass spectrometry method (BioAgilytix, San Diego, CA). The assay range was 50.0–50,000 ng/mL in both plasma and urine.
Area under the concentration-time curve (AUC) from time zero to the time of the last quantifiable concentration (AUC0–last), AUC from time zero to infinity (AUC0–inf), AUC within a dosing interval of 6 hours (AUC0–6h), maximum observed concentration (Cmax), time to reach maximum concentration (Tmax), apparent terminal half-life (t1/2), total clearance (CL), volume of distribution during terminal phase (Vz), and accumulation ratio based on AUC (ARAUC) were determined for BRII-693 in plasma. Urine parameters included amount and percentage of dose recovered in urine as unchanged drug over each collection interval and cumulatively and renal clearance (CLR). PK parameters were determined using noncompartmental methods in Phoenix WinNonlin (Certara, Version 8.3).

[2] = single 1-h IV infusion 10 mg, n = 5, arithmetic mean ± SD
[3] = single 1-h IV infusion 25 mg, n = 5, arithmetic mean ± SD
[4] = single 1-h IV infusion 50 mg, n = 6, arithmetic mean ± SD
[5] = single 1-h IV infusion 100 mg, n = 6, arithmetic mean ± SD
[6] = single 1-h IV infusion 200 mg, n = 6, arithmetic mean ± SD
[7] = single 1-h IV infusion 300 mg, n = 6, arithmetic mean ± SD
[8] = single 1-h IV infusion 400 mg, n = 6, arithmetic mean ± SD

CC[C@@H]1NC(=O)[C@@H](CC(C)C)NC(=O)[C@H](CCN)NC(=O)[C@@H](NC(=O)[C@H](CN)NC(=O)[C@@H](NC(=O)[C@H](CCN)NC(=O)c2ccc(Cl)cc2Cl)[C@@H](C)O)CCNC(=O)[C@H]([C@@H](C)O)NC(=O)[C@H](CCN)NC(=O)[C@H](CCN)NC1=O [BRII-693] (X1-[Dab]T[Dap][Dab][Dab][dL][Abu][Dab][Dab]T; lactam 4-C; N-terminus assumed)
fe0–48h [1, 2]: 0.95 ± 0.50^b %
CLR [1, 2]: 0.036 ± 0.018^b L/h
fe0–48h [1, 3]: 5.73 ± 3.67%
CLR [1, 3]: 0.22 ± 0.12 L/h
fe0–48h [1, 4]: 21.5 ± 9.19%
CLR [1, 4]: 0.86 ± 0.33 L/h
fe0–48h [1, 5]: 40.2 ± 5.40%
CLR [1, 5]: 1.51 ± 0.31 L/h
fe0–48h [1, 6]: 47.6 ± 15.6%
CLR [1, 6]: 1.92 ± 0.80 L/h
fe0–48h [1, 7]: 57.5 ± 16.2%
CLR [1, 7]: 2.44 ± 0.50 L/h
fe0–48h [1, 8]: 68.4 ± 11.4%
CLR [1, 8]: 2.68 ± 0.42 L/h
Participants reporting AEs (7-day MAD cohorts 8–10, after multiple dosing, all BRII-693-treated (5 of 17)): 29.4%
Participants reporting AEs (7-day MAD cohorts 8–10, after single dosing on day 1, all BRII-693-treated (3 of 17)): 17.6%
Participants who discontinued the study due to treatment-related AE (headache, moderate) (7-day MAD, 200 mg, after the single dose on day 1 (One of 6)): 16.7%
Participants reporting AEs (7-day MAD, after multiple dosing, 100 mg q6h (2 of 6)): 33.3%
Participants reporting AEs (7-day MAD, after multiple dosing, 200 mg q6h (3 of 6)): 50.0%
Participants reporting AEs (7-day MAD, after single dosing on day 1, 150 mg (1 of 5)): 20.0%
Participants reporting AEs (7-day MAD, after single dosing on day 1, 200 mg (2 of 6)): 33.3%
Participants reporting AEs (SAD phase, 100 mg (1 of 6)): 16.7%
Participants reporting AEs (SAD phase, 200 mg (1 of 6)): 16.7%
Severity of AEs (SAD phase, all AEs (five events, placebo included)): mild in severity
Participants reporting AEs (SAD phase, all BRII-693-treated participants (2 of 41)): 4.9%
Participants reporting AEs (cohort 11, 150 mg q6h × 14 days, non-Chinese (5 of 10)): 50.0%
Participants reporting AEs (cohort 12, 150 mg q6h × 14 days, Chinese (Five of the 10)): 50.0%
Overall safety and tolerability (in vivo, iv): safe and well tolerated
